Values of other authors in publication PMC3009454 (Bioconjugate chemistry, 2009).

Tested on: primary melanoma and pulmonary melanoma metastases
Settings: small animal SPECT/CT

## ^111In-1,4,7,10-tetraazacyclododecane-1,4,7,10-tetraacetic acid-c[Lys-Nle-Glu-His-DPhe-Arg-Trp-Gly-Arg-Pro-Val-Asp] (sidechain bridge or staple) [^111In-DOTA-GlyGlu-CycMSH]
  SPECT/CT visualization of primary melanoma and pulmonary melanoma metastases: clearly visualized
